These results are taken from patent publication US11180510B2, “Xanthine derivatives and uses thereof as inhibitors of bromodomains of BET proteins” (Centre national de la recherche scientifique, priority 2017, dated 2021).

The structures appear in SMILES notation. Some results are limits rather than exact numbers.

The target in test [1] is T1, BRD4(BD1) (Homo sapiens, UniProt O60885). The test can be described thus: HTRF assay, BRD4(BD1)/histone peptide interaction. It counts as binding. On the set-up: made in house. As to conditions: HTRF; triplicates; NA = IC50 > maximal concentration of compound used. How it is done: HTRF assays were performed in white 384 Well Small Volume™ HiBase Polystyrene Microplates (Greiner) with a total working volume of 20 μL. Compounds were dispensed, with 100 nL per well (0.5% final DMSO), from a concentration stock of 10 mM in 100% DMSO and with serial DMSO dilutions, using an Echo® 550 robot from the Access Labcyte platform (Labcyte) and based on the transfer of liquid by acoustic wave. Then, 19.5 μL of buffer is added, using a Multidrop Combi (Thermo Fisher Scientific). […] All HTRF reagents (donor and acceptor) were purchased from CisBio Bioassays and reconstituted according to the supplier protocols. The peptide was purchased from Genic Bio Synthetic. The BRD4(1) protein was produced and purified in the laboratory.
Percentage of inhibition was calculated using the following equation: % inhibition=[(compound signal)−(min signal)]/[(max signal)−(min signal)]*100, where ‘max signal’ is the signal ratio with the compound vehicle alone (DMSO) and ‘min signal’ the signal ratio without peptide.
Selectivity profiles of bromodomain inhibitors were performed as described in HTRF screen section. […] HTRF detection reagents (EPIgeneous™ Binding Domain kits) were purchased from Cisbio Bioassays and used according to supplier's protocol. GST tagged bromodomain proteins were purchased from BPS Bioscience and histone peptide from Genic Bio Synthetic.

The target of test [2] is T1, BRD4(BD1). Briefly: Isothermal Titration Calorimetry. It counts as binding. Conditions: ITC; read-out: Binding affinity (Kd) to BRD4(1) by Isothermal Titration Calorimetry. How it is done: FIG. 1. Isothermal Titration Calorimetry (ITC) of 43c. Thermogram (top) and non-linear least squares fit model of the integrated data (bottom) at 15° C. of Brd4 (BD1) […] as a function of the molar ratio of ligand to the protein.
ITC was used to evaluate the thermodynamics parameters of the binding between BRD4 (BD1) and the selected compounds. Titrations were carried out on a MicroCal ITC200 microcalorimeter (GE Healthcare, Piscataway, N.J.). Each experiment was designed using a titrant concentration (protein in the syringe generally between 100 and 400 μM) set 10 to 15 times the analyte concentration (compound in the cell generally between 10 and 40 μM) and using 13 injections at 25° C. A first small injection (generally 0.2 μL) was included in the titration protocol in order to remove air bubbles trapped in the syringe prior titration. Raw data were scaled after setting the zero to the titration saturation heat value. Integrated raw ITC data were fitted to a one site non-linear least squares fit model using the MicroCal Origin plugin as implemented in Origin 7 (Origin Lab). Finally, ΔG and TΔS values were calculated from the fitted ΔH and KA values using the equations ΔG=−R.T.inKA and ΔG=ΔH−TΔS.

On BRD4(BD1) [1], `CCn1cnc2c1c(=O)[nH]c(=O)n2Cc1ccc(CNC(=O)[C@H](O)c2ccc(C)cc2)cc1` [Compound 35c] came in with an IC50 of 1800 nM. In other words, the single-digit micromolar range.
Regarding `O=C1CCCc2cc(S(=O)(=O)N3CCC(C(=O)NCCc4cccs4)CC3)ccc2N1` [Compound 11c], on BRD4(BD1) [1], the IC50 is > 50000 nM.
On to `O=C1CCCc2cc(S(=O)(=O)NCC3CCC(C(=O)NCc4ccncc4)CC3)ccc2N1` (centres unmarked) [Compound 6c], for which 30000 nM corresponded to half-maximal inhibition against BRD4(BD1) [1] (IC50). That is a double-digit micromolar value.
Same read-out and setting: in the case of `CCn1cnc2c1c(=O)[nH]c(=O)n2Cc1ccc(CNS(=O)(=O)c2ccc(-c3coc(C)n3)cc2)cc1` [Compound 30a] it was 600 nM; in that of `O=C1CCCc2cc(S(=O)(=O)NCc3ccc(C(=O)NCc4ccncc4)cc3)ccc2N1` [Compound 14c], > 25000 nM.
Same read-out and setting: in the case of `CCn1cnc2c1c(=O)[nH]c(=O)n2Cc1ccc(CNC(=O)c2ccc(N3CCc4ccccc4C3)cc2)cc1` [Compound 34c] it was 749 nM; in that of `CCn1cnc2c1c(=O)[nH]c(=O)n2Cc1ccc(CNC(=O)[C@H]2CC[C@H](CNC(=O)OC(C)(C)C)CC2)cc1` [Compound 38b], 8100 nM.
`CCn1cnc2c1c(=O)[nH]c(=O)n2Cc1ccc(CNS(=O)(=O)c2ccc([N+](=O)[O-])cc2)cc1` [Compound 28a] gave an IC50 on BRD4(BD1) [1] of 1300 nM.
Consider `CCn1cnc2c1c(=O)[nH]c(=O)n2Cc1ccc(CNS(=O)(=O)CCc2ccccc2)cc1` [Compound 22c], for which the concentration for half-maximal inhibition (IC50) at BRD4(BD1) [1] is 1400 nM.
Still for that read-out and setting: in the case of `CCn1cnc2c1c(=O)[nH]c(=O)n2Cc1ccc(CNC(=O)C(N)c2ccc(C)cc2)cc1` (centres unmarked) [Compound 40a] it was 18000 nM; in that of `CCn1cnc2c1c(=O)[nH]c(=O)n2Cc1ccc(CNC(=O)[C@@H]2CCCN(C(=O)OC(C)(C)C)C2)cc1` [Compound 39a], 6800 nM.
`CCn1cnc2c1c(=O)[nH]c(=O)n2Cc1ccc(CNS(=O)(=O)c2cc(C)ns2)cc1` [Compound 24c]: at BRD4(BD1) [1], half-maximal inhibition (IC50) required 1700 nM.
In the case of `Cc1noc(C)c1CNC(=O)c1ccc(CNS(=O)(=O)c2ccc3c(c2)CCCC(=O)N3)cc1` [Compound 15c], the Kd at BRD4(BD1) [2] was 2200 nM. Further, it took 7800 nM to reach half-maximal inhibition against BRD4(BD1) [1] (IC50).
